Measured values from BindingDB's records for doi:10.1021/jm0310479 (Roche Diagnostics, 2004).
Where a name gives a salt, the structure may show the parent alone.

Assays:
[1] = molecular target: RAC-alpha serine/threonine-protein kinase (Homo sapiens, UniProt P31749); assay: PKB In Vitro Kinase Assay; details: pH 7.5; 22 °C
Procedure: An ELISA-based assay has been developed for the serine/threonine kinase, PKB-alpha. The assay utilizes an N-terminally biotinylated substrate peptide. When this substrate is phosphorylated by the kinase, the product is recognized by a substrate/sequence-specific antibody, which binds to particular phosphorylated serine residues. […] Calculation of IC50 values was performed with ActivityBase.

[2] = molecular target: cAMP-dependent protein kinase catalytic subunit alpha (Bos taurus, UniProt P00517); assay: Fluorescence Polarization-based Assay; details: pH 7.2; 22 °C
Procedure: In this assay, a fluorescent phosphopeptide tracer and the nonfluorescent phosphopeptides generated during a PKA reaction compete for binding to an antiphosphoserine antibody. In a reaction mixture containing phosphopeptide product, the fluorescent tracer is displaced from the antibody and the emission signal becomes depolarized. Enzymatic activity was measured by detection of fluorescence polarity in a Victor 2 reader (Wallac, Finland). […] Calculation of IC50 values was performed with ActivityBase.

Chain of RAC-alpha serine/threonine-protein kinase (P31749 whole entry): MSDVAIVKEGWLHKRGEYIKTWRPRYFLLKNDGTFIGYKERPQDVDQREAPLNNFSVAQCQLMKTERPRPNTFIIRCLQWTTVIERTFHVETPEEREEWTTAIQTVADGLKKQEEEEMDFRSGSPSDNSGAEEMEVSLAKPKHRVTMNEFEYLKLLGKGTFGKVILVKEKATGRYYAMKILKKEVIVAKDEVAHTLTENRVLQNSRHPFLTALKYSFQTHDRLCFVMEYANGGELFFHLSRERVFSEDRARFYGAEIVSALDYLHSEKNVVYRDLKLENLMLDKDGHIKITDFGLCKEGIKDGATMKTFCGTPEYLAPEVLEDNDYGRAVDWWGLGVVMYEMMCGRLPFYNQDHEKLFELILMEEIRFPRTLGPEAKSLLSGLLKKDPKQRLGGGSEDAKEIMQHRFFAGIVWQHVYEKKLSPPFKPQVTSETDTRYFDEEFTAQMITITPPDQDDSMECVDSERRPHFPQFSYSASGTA

Structure (SMILES) | IC50 [1] | IC50 [2]
COc1ccc(O)c(C(=O)c2ccc(CO[C@@H]3CCCNC[C@H]3NC(=O)c3ccncc3)cc2)c1F [N-((3R,4R)-4-{[4-(2-fluoro-6-hydroxy-3-methoxybenzoyl)benzyl]oxy}azepan-3-yl)isonicotinamide dihydrochloride] | 0.355 µM | 
COc1ccc(O)c(C(=O)c2ccc(NC[C@@H]3CCCNC[C@H]3NC(=O)c3ccncc3)cc2)c1F [N-[(3S,4S)-4-[({4-[(2-fluoro-6-hydroxy-3-methoxyphenyl)carbonyl]phenyl}amino)methyl]azepan-3-yl]pyridine-4-carboxamide trihydrochloride] | 25 µM | 45 µM
